Source: PubChem BioAssay (NCI)
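Five compound concentrations were applied to cells in 96-well plates for 48 hours; endpoints were derived by simple linear interpolation of the resulting dose-response curve. GI50 = concentration required for 50% inhibition of growth. The concentration for full growth arrest is given as TGI.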

What was measured:
Experiment in all cases: NCI-60 cell line screen, 48 h
A549 NSCLC = tested on: A549 NSCLC
SW-620 colon = tested on: SW-620 colon
T-47D breast = tested on: T-47D breast
NCI/ADR-RES ovarian = tested on: NCI/ADR-RES ovarian
CAKI-1 renal = tested on: CAKI-1 renal
SF-268 CNS = tested on: SF-268 CNS
HCC-2998 colon = tested on: HCC-2998 colon
UACC-257 melanoma = tested on: UACC-257 melanoma
DMS 114 small cell lung = tested on: DMS 114 small cell lung
MDA-N = tested on: MDA-N

Structure (SMILES) | GI50 (A549 NSCLC) | TGI (A549 NSCLC) | GI50 (SW-620 colon) | TGI (SW-620 colon) | GI50 (T-47D breast) | TGI (T-47D breast) | GI50 (NCI/ADR-RES ovarian) | TGI (NCI/ADR-RES ovarian) | GI50 (CAKI-1 renal) | TGI (CAKI-1 renal) | GI50 (SF-268 CNS) | TGI (SF-268 CNS) | GI50 (HCC-2998 colon) | TGI (HCC-2998 colon) | GI50 (UACC-257 melanoma) | TGI (UACC-257 melanoma) | TGI (DMS 114 small cell lung) | TGI (MDA-N)
Cc1cc2c(C(N)=O)cccc2n1-c1nc2c(c(NCc3ccccc3)n1)CCCN2 | 0.22 µM | 0.543 µM | 0.219 µM | 0.507 µM | 0.185 µM | 0.431 µM | 0.307 µM | 1.74 µM | 0.151 µM | 0.333 µM | 0.213 µM | 0.487 µM | 0.17 µM | 0.325 µM | 0.167 µM | 0.347 µM | – | –
Cc1cc2c(c(C#N)c1C)NC(=O)C(CC(=O)O)C2=O (configuration not stated) | – | > 100 µM | – | > 100 µM | – | – | – | – | – | > 100 µM | – | > 100 µM | – | > 100 µM | – | > 100 µM | > 100 µM | –
Cc1ccc(NC2=C(Sc3ccc(Cl)cc3)C(=O)N(Cc3ccccc3)C2=O)cc1Cl | 3.38 µM | 15.9 µM | 6.01 µM | 36.2 µM | 5.32 µM | 66.4 µM | 10.4 µM | 29.7 µM | 3.44 µM | 15.9 µM | 6.26 µM | 93.7 µM | 19.6 µM | > 100 µM | 7.37 µM | 30.3 µM | – | –
N#CSCC1CC(O)(c2ccccc2)C(c2ccccc2)C(c2ccc(F)cc2)O1 (configuration not stated) | 8.38 µM | 40.5 µM | 3.02 µM | 10 µM | 3.17 µM | > 37.3 µM | 3.13 µM | 11.9 µM | 2.39 µM | 5.46 µM | 2.57 µM | 7.25 µM | 10.7 µM | 23 µM | 3.66 µM | 13.5 µM | – | –
O=C(Nc1ccc2oc(=O)c(C(=O)O)cc2c1)Oc1ccccc1 | – | > 100 µM | – | > 100 µM | – | > 100 µM | – | > 100 µM | – | > 100 µM | – | > 100 µM | – | > 100 µM | – | > 100 µM | – | –
COc1cc2c(cc1OC)[C@@H](C(O)c1ccccc1)NCC2 (some centres not stated) | – | > 100 µM | – | > 100 µM | – | – | – | – | – | > 100 µM | – | > 100 µM | – | > 100 µM | – | > 100 µM | > 100 µM | –
COC1=C(C(=O)OC(C)(C)C)[C@]2(C)C(C(=O)OC(C)(C)C)C(OC)=C(C(=O)OC(C)(C)C)[C@]2(C)C1C(=O)OC(C)(C)C (some centres not stated) | – | > 100 µM | – | > 100 µM | – | – | – | – | – | > 100 µM | – | > 100 µM | – | > 100 µM | – | > 100 µM | > 100 µM | –
C=C1C(=O)O[C@@H]2C[C@@H](C)[C@@H]3[C@@H](OC4OC(COC(C)=O)C(O)C(O)C4O)CC(=O)[C@@]3(C)C[C@H]12 (some centres not stated) | – | 22.3 µM | – | 1.61 µM | – | 8.89 µM | – | 14.5 µM | – | 1.01 µM | – | 44.7 µM | – | 3.14 µM | – | 3.49 µM | – | 3.51 µM
Cn1c(=O)c2[nH]c(COCc3nc4c([nH]3)c(=O)n(C)c(=O)n4C)nc2n(C)c1=O | – | > 100 µM | – | > 100 µM | – | > 100 µM | – | > 100 µM | – | > 100 µM | – | > 100 µM | – | – | – | > 100 µM | – | > 100 µM
Cn1c2ccccc2c2nnc(N/N=C/c3ccccn3)nc21 | 0.461 µM | > 27.5 µM | 0.509 µM | > 82.1 µM | 0.392 µM | 10.8 µM | 0.336 µM | 8.89 µM | 0.264 µM | 1.19 µM | 0.343 µM | – | 0.529 µM | > 63.8 µM | 0.433 µM | – | – | –
Cc1nc(NC(=S)Nc2ccc(F)cc2)sc1C(=O)NNC(=S)Nc1ccc(F)cc1 | 5.29 µM | 45.5 µM | 10.6 µM | 25.2 µM | 2.59 µM | 20.7 µM | 3.62 µM | 18.2 µM | 11.4 µM | 44.9 µM | 10.7 µM | 28.5 µM | 6.6 µM | 22.5 µM | 10.1 µM | 36.8 µM | – | –
CC1(C)N=C(N)N=C(N)N1c1cccc(CCCCc2ccc(S(=O)(=O)F)cc2Cl)c1 | 1.42 µM | > 100 µM | 0.701 µM | > 39.8 µM | 14 µM | 34.5 µM | 76 µM | > 100 µM | 9.21 µM | > 100 µM | 1.96 µM | 17.4 µM | 5.47 µM | 38.8 µM | 2.15 µM | 20.8 µM | – | –
O=C1C(Cl)=C(N2CCOCC2)C(=O)c2ccccc21 | 17.8 µM | 32.3 µM | 1.76 µM | 3.51 µM | 2.31 µM | 5.13 µM | 3.11 µM | 13 µM | 1.88 µM | 3.49 µM | 4.88 µM | 16.8 µM | 12 µM | 25.6 µM | 1.62 µM | 3.03 µM | – | –
CCOC(=O)NC(=O)c1cn(CCCOC(=O)CCCCCCCCC(=O)OCCCn2cc(C(=O)NC(=O)OCC)c(=O)[nH]c2=O)c(=O)[nH]c1=O | – | > 100 µM | – | 60.3 µM | – | – | – | – | – | 51.3 µM | – | – | – | 44.8 µM | – | 48.4 µM | 39.2 µM | –
NC(=O)C1=C(c2ccccc2)c2ccccc2C1=O | – | 37.6 µM | – | 66.6 µM | – | 40.9 µM | – | 38 µM | – | 30.4 µM | – | 44.3 µM | – | 29.5 µM | – | 27.1 µM | – | 38.1 µM
NC1CCC[C@@H](O)[C@H]1O (some centres not stated) | – | > 100 µM | – | > 100 µM | – | > 100 µM | – | > 100 µM | – | > 100 µM | – | > 100 µM | – | > 100 µM | – | > 100 µM | – | > 100 µM
COc1ccc(C2=C(c3cn(C)c4ccccc34)C(=O)NC2=O)cc1OC | 8.44 µM | > 25 µM | 6.96 µM | > 25 µM | 7.21 µM | > 25 µM | 7.99 µM | > 25 µM | 5.78 µM | > 25 µM | 8.85 µM | > 25 µM | > 22.3 µM | > 25 µM | > 25 µM | > 25 µM | – | –
CN(/N=N/c1nc(OCc2ccccc2)c2[nH]cnc2n1)C(=O)N(C)/N=N/c1nc(OCc2ccccc2)c2[nH]cnc2n1 | 56 µM | > 100 µM | 71.7 µM | > 100 µM | 39.6 µM | > 100 µM | 47.2 µM | > 100 µM | 17 µM | 63.5 µM | 47.6 µM | > 100 µM | 19.3 µM | 81.6 µM | 54.7 µM | > 100 µM | – | –
